Data reported in US20110045101A1, “FUNGICIDAL SUBSTITUTED AZOLES” (E.I. Du Pont De Nemours and Company, priority 2009, published 2011).
Marks after values point to notes of the source that are not given here.

Legend:
Format in all cases: in vivo
Conditions in all cases: 100 = 100% disease control
Botrytis cinerea = assay: Test C: tomato Botrytis on tomato seedlings, sprayed the day before inoculation, visual disease rating
Outline: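 Disease scored by eye on tomato seedlings inoculated with Botrytis cinerea a day after treatment. Treatment was a run-off spray at 200 ppm (equivalent to 500 g/ha), or 40 ppm where marked, in acetone/water carrying 250 ppm Trem 014.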

Alternaria solani = assay: Test D: tomato early blight, sprayed the day before inoculation, visual disease rating
Outline: (§1)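 Ratings reflect a 200 ppm spray (≈500 g/ha) unless marked as 40 ppm. Plants were sprayed to run-off. The spray suspension was acetone/purified water 50/50 containing 250 ppm Trem 014, after first dissolving compound in acetone at 3% of final volume.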

Septoria nodorum = assay: Test F: wheat glume blotch on wheat seedlings, sprayed the day before inoculation, visual disease rating
Outline: as §1

Septoria tritici = assay: Test G: wheat leaf blotch on wheat seedlings, sprayed the day before inoculation, visual disease rating
Outline: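 Disease was rated visually after Septoria tritici inoculation, 48 h saturated incubation at 24°C and 19 days in a 20°C growth chamber. Inoculation followed one day after run-off spraying of seedlings with compound at 200 ppm (≈500 g/ha) or, where marked, 40 ppm, formulated in acetone/water with surfactant.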

[1] = tested on: Puccinia recondita f. sp. tritici; assay: Test H: wheat leaf rust, test suspension sprayed after inoculation of wheat seedlings, visual disease rating
Outline: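 Wheat seedlings inoculated with P. recondita spores, held 24 h saturated at 20 °C, then 2 days in growth chamber at 20 °C; compound suspension (acetone/water with Trem 014) sprayed to run-off afterwards. Rated visually; 200 ppm (≈500 g/ha) unless marked *, which denotes 40 ppm.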

[2] = tested on: Puccinia recondita f. sp. tritici; assay: Test I: wheat leaf rust on wheat seedlings, sprayed the day before inoculation, visual disease rating
Outline: as §1

[3] = tested on: Erysiphe graminis f. sp. tritici; assay: Test J: wheat powdery mildew on wheat seedlings, sprayed the day before inoculation, visual disease rating
Outline: as §1

[4] = 200 ppm, 0 = no control relative to controls

Fc1ccc(-n2cnc(Br)c2-c2c(F)ccc(F)c2Cl)cc1 [compound 508]
Test C disease control rating (Botrytis cinerea; [4]): 100% | Test D disease control rating (Alternaria solani; [4]): 100% | Test F disease control rating (Septoria nodorum; [4]): 0% | Test G disease control rating (Septoria tritici; [4]): 94% | Test H disease control rating [1, 4]: 78% | Test I disease control rating [2, 4]: 99% | Test J disease control rating [3, 4]: 99%

COc1ccc(F)c(-c2c(Br)nc(Cl)n2-c2ccc(Cl)cc2)c1F [compound 510]
Test C disease control rating (Botrytis cinerea; [4]): 99% | Test D disease control rating (Alternaria solani; [4]): 100% | Test F disease control rating (Septoria nodorum; [4]): 100% | Test G disease control rating (Septoria tritici; [4]): 99% | Test H disease control rating [1, 4]: 9% | Test I disease control rating [2, 4]: 98% | Test J disease control rating [3, 4]: 100%

COc1ccc(F)c(-c2c(Br)nc(Br)n2-c2ccc(C)cc2)c1F [compound 511]
Test C disease control rating (Botrytis cinerea; [4]): 99% | Test D disease control rating (Alternaria solani; [4]): 99% | Test F disease control rating (Septoria nodorum; [4]): 99% | Test G disease control rating (Septoria tritici; [4]): 99% | Test H disease control rating [1, 4]: 0% | Test I disease control rating [2, 4]: 99% | Test J disease control rating [3, 4]: 100%

COc1ccc(Cl)c(-c2c(Cl)nc(Br)n2-c2ccc(Cl)cc2)c1F [compound 512]
Test C disease control rating (Botrytis cinerea; [4]): 97% | Test D disease control rating (Alternaria solani; [4]): 98% | Test F disease control rating (Septoria nodorum; [4]): 0% | Test G disease control rating (Septoria tritici; [4]): 98% | Test H disease control rating [1, 4]: 40% | Test I disease control rating [2, 4]: 79% | Test J disease control rating [3, 4]: 99%

COc1cc(F)c(-c2c(Cl)nc(Cl)n2-c2cccnc2Cl)c(F)c1 [compound 513]
Test C disease control rating (Botrytis cinerea; [4]): 99% | Test D disease control rating (Alternaria solani; [4]): 100% | Test F disease control rating (Septoria nodorum; [4]): 100% | Test G disease control rating (Septoria tritici; [4]): 100% | Test H disease control rating [1, 4]: 100% | Test I disease control rating [2, 4]: 100% | Test J disease control rating [3, 4]: 100%

COc1cc(F)c(-c2c(Cl)nc(Cl)n2-c2ccc(Cl)nc2OC)c(F)c1 [compound 514]
Test C disease control rating (Botrytis cinerea; [4]): 99% | Test D disease control rating (Alternaria solani; [4]): 99% | Test F disease control rating (Septoria nodorum; [4]): 73% | Test G disease control rating (Septoria tritici; [4]): 100% | Test H disease control rating [1, 4]: 0% | Test I disease control rating [2, 4]: 93% | Test J disease control rating [3, 4]: 99%

COc1cc(F)c(-c2c(Cl)nc(Cl)n2-c2ccc(OC)nc2Cl)c(F)c1 [compound 515]
Test C disease control rating (Botrytis cinerea; [4]): 97% | Test D disease control rating (Alternaria solani; [4]): 99% | Test F disease control rating (Septoria nodorum; [4]): 0% | Test G disease control rating (Septoria tritici; [4]): 100% | Test H disease control rating [1, 4]: 100% | Test I disease control rating [2, 4]: 100% | Test J disease control rating [3, 4]: 100%

COc1cc(F)c(-c2c(Cl)nc(Cl)n2-c2ccc(OC)nc2)c(F)c1 [compound 516]
Test C disease control rating (Botrytis cinerea; [4]): 97% | Test D disease control rating (Alternaria solani; [4]): 100% | Test F disease control rating (Septoria nodorum; [4]): 100% | Test G disease control rating (Septoria tritici; [4]): 100% | Test H disease control rating [1, 4]: 100% | Test I disease control rating [2, 4]: 100% | Test J disease control rating [3, 4]: 100%

COc1ccc(F)c(-c2c(Br)nc(Cl)n2-c2ccc(C)cc2)c1F [compound 517]
Test C disease control rating (Botrytis cinerea; [4]): 100% | Test D disease control rating (Alternaria solani; [4]): 100% | Test F disease control rating (Septoria nodorum; [4]): 96% | Test G disease control rating (Septoria tritici; [4]): 98% | Test H disease control rating [1, 4]: 0% | Test I disease control rating [2, 4]: 99% | Test J disease control rating [3, 4]: 100%

COc1ccc(Cl)c(-c2c(Cl)nc(Cl)n2-c2ccc(Cl)cc2)c1F [compound 518]
Test C disease control rating (Botrytis cinerea; [4]): 100% | Test D disease control rating (Alternaria solani; [4]): 99% | Test F disease control rating (Septoria nodorum; [4]): 99% | Test G disease control rating (Septoria tritici; [4]): 98% | Test H disease control rating [1, 4]: 0% | Test I disease control rating [2, 4]: 98% | Test J disease control rating [3, 4]: 100%

COc1ccc(F)c(-c2c(Cl)nc(C)n2-c2ccc(Cl)cc2)c1Cl [compound 519]
Test C disease control rating (Botrytis cinerea; [4]): 100% | Test D disease control rating (Alternaria solani; [4]): 100% | Test F disease control rating (Septoria nodorum; [4]): 100% | Test G disease control rating (Septoria tritici; [4]): 97% | Test H disease control rating [1, 4]: 0% | Test I disease control rating [2, 4]: 100% | Test J disease control rating [3, 4]: 100%

COc1ccc(F)c(-c2c(Cl)ncn2-c2ccc(C)c(F)c2)c1F [compound 520]
Test C disease control rating (Botrytis cinerea; [4]): 100% | Test D disease control rating (Alternaria solani; [4]): 100% | Test F disease control rating (Septoria nodorum; [4]): 0% | Test G disease control rating (Septoria tritici; [4]): 97% | Test H disease control rating [1, 4]: 0% | Test I disease control rating [2, 4]: 99% | Test J disease control rating [3, 4]: 100%

COc1cc(F)c(-c2c(C)nc(C)n2-c2ccc(C)cc2)c(F)c1 [compound 521]
Test C disease control rating (Botrytis cinerea; 40 ppm (marked *)): 99* % | Test D disease control rating (Alternaria solani; 40 ppm (marked *)): 99* % | Test F disease control rating (Septoria nodorum; 40 ppm (marked *)): 0* % | Test G disease control rating (Septoria tritici; 40 ppm (marked *)): 98* % | Test H disease control rating ([1]; 40 ppm (marked *)): 0* % | Test I disease control rating ([2]; 40 ppm (marked *)): 98* % | Test J disease control rating ([3]; 40 ppm (marked *)): 90* %

COc1cc(F)c(-c2c(C)nc(C)n2-c2ccc(F)cc2)c(F)c1 [compound 522]
Test C disease control rating (Botrytis cinerea; 40 ppm (marked *)): 100* % | Test D disease control rating (Alternaria solani; 40 ppm (marked *)): 100* % | Test F disease control rating (Septoria nodorum; 40 ppm (marked *)): 0* % | Test G disease control rating (Septoria tritici; 40 ppm (marked *)): 98* % | Test H disease control rating ([1]; 40 ppm (marked *)): 0* % | Test I disease control rating ([2]; 40 ppm (marked *)): 99* % | Test J disease control rating ([3]; 40 ppm (marked *)): 96* %

COc1cc(F)c(-c2c(Br)nc(Br)n2-c2ccc(F)cc2)c(F)c1 [compound 523]
Test C disease control rating (Botrytis cinerea; 40 ppm (marked *)): 100* % | Test D disease control rating (Alternaria solani; 40 ppm (marked *)): 100* % | Test F disease control rating (Septoria nodorum; 40 ppm (marked *)): 0* % | Test G disease control rating (Septoria tritici; 40 ppm (marked *)): 98* % | Test H disease control rating ([1]; 40 ppm (marked *)): 0* % | Test I disease control rating ([2]; 40 ppm (marked *)): 99* % | Test J disease control rating ([3]; 40 ppm (marked *)): 97* %

COc1cc(F)c(-c2c(Br)nc(Br)n2-c2ccc(C)cc2)c(F)c1 [compound 524]
Test C disease control rating (Botrytis cinerea; 40 ppm (marked *)): 99* % | Test D disease control rating (Alternaria solani; 40 ppm (marked *)): 100* % | Test F disease control rating (Septoria nodorum; 40 ppm (marked *)): 60* % | Test G disease control rating (Septoria tritici; 40 ppm (marked *)): 98* % | Test H disease control rating ([1]; 40 ppm (marked *)): 85* % | Test I disease control rating ([2]; 40 ppm (marked *)): 99* % | Test J disease control rating [3, 4]: 97%
